The values that follow come from patent publication US7410975B2, “Small molecule toll-like receptor (TLR) antagonists” (Coley Pharmaceutical Group, Inc., priority 2003, dated 2008).

Where a name gives a salt, the structure may show the parent alone.

The assay addresses T1, human TLR8 (hTLR8) (Homo sapiens, UniProt Q9NR97).
T1 construct: expressed in transfected cells
T1 sequence (Q9NR97 27-1041): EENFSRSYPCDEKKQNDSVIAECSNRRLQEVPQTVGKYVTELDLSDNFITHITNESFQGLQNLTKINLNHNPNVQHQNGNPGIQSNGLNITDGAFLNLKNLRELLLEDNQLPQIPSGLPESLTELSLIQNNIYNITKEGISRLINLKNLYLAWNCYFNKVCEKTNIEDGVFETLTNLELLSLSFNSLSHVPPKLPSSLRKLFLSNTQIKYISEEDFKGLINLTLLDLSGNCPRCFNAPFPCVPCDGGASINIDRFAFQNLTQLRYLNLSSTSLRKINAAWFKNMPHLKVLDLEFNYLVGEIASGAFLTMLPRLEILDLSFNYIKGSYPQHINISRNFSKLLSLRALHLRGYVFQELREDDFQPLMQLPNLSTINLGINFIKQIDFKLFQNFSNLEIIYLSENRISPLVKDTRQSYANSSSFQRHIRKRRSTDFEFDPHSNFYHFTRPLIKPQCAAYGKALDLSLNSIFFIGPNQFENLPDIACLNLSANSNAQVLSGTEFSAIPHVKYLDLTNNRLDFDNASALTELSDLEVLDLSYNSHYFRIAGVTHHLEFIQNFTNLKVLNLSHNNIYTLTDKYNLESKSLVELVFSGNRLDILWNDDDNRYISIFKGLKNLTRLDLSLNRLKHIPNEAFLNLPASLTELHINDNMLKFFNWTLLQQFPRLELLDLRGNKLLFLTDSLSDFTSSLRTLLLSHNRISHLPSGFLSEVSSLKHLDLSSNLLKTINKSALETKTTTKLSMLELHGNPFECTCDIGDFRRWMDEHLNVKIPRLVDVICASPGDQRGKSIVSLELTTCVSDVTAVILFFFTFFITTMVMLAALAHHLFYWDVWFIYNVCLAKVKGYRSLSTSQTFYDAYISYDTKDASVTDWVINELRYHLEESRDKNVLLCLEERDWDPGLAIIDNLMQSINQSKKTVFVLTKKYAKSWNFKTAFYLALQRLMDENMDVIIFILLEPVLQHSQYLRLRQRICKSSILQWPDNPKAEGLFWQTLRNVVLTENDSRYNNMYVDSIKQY
The assay can be described thus: Antagonist screen, hTLR8-NFκB-293 cells, NF-κB-luciferase reporter, with EC50 of R848. It is filed as cell-based. To be noted: compound at 0.5, 5, 50 μg/ml; EC50 concentration of R848; 16 h; NF-κB-luciferase. Here is the method:
The method is described in greater detail as follows. The cells for each individual cell clone (hTLR3-NFκB-293, hTLR7-NFκB-293, hTLR8-NFκB-293 and hTLR9-NFκB-293) were counted and seeded one day before the stimulation at 1.5×10^4 cells per well in 96-well cell culture plates. To become adherent the cells were incubated after seeding overnight at 37° C. in 5% CO2 humidified air.
The screen for each compound was performed at the same time for all of the receptors TLR3, TLR7, TLR8 and TLR9. Up to fifteen test compounds, each assayed in duplicate at each of three different final concentrations (0.5 μg/ml, 5 μg/ml, and 50 μg/ml), were used for 16 h cell stimulation on a single multiwell culture plate. A 4× final concentration master plate was created to prepare the different test compounds before they were added to the cells.
Controls were added as duplicates individually for each cell clone on the cell culture plate. Positive controls were used as follows (final concentrations): 50 μg/ml poly(I:C) for hTLR3-NFκB-293; 8 μM resiquimod (R848) for hTLR7-NFκB-293; 30 μM R848 for hTLR8-NFκB-293; and 2.5 μM CpG-ODN 2006 for hTLR9-NFκB-293. Media alone was used as negative control. After addition of controls and small molecules, the cell clones were additionally stimulated with the EC50 concentration of the appropriate receptor-specific ligand.
The mean value of wells H2 and H5 (each with cells and EC50 concentration of the appropriate receptor-specific ligand) divided by the mean of wells H3 and H6 (each with cells alone) yielded the baseline response (i.e., fold induction of luciferase activity) to EC50 concentration of the appropriate receptor-specific ligand.
After 16 h stimulation the supernatant was removed and the cells treated with lysis buffer and stored at −80° C. before measuring.
For each screen result a graphical documentation was performed.
The baseline result (measured with addition of the EC50 concentration of the receptor-specific ligand) for each cell culture plate was measured as described above. Antagonistic effects were measured by down regulation compared to the baseline. Antagonists were scored as follows: • 13: compounds for which there was clear down regulation at 0.5 μg/ml, 5 μg/ml, and 50 μg/ml; • 12: compounds for which there was clear down regulation at 5 μg/ml and 50 μg/ml; • 11: compounds for which there was clear down regulation only at 50 μg/ml; • —: compounds for which there was no clear down regulation even at 50 μg/ml. Agonists
Results were expressed as fold induction over baseline luciferase activity measured in the absence of R848. […] Additional screening was performed in like manner using additional small molecules selected from another library or specifically prepared for this purpose. Scoring is reported as above but as applied to TLR8.
Regarding `CN(C)CCCN1c2ccccc2Sc2ccc(C(F)(F)F)cc21.Cl` [compound 53, Triflupromazinehydrochloride], the “hTLR8 (inhibitory effect, antagonist score)” value is 11 (compounds for which there was clear down regulation only at 50 μg/ml).

As to `C=CCc1ccccc1OC1(c2ccccc2)OC(=O)c2ccccc21` (stereo not drawn) [compound 957], the “hTLR8 (inhibitory effect, antagonist score)” value is “— (compounds for which there was no clear down regulation even at 50 μg/ml)”.

On to `O=C(O)c1cccc2c1/C(=N/O)c1ccccc1-2` [compound 918], for which the “hTLR8 (inhibitory effect, antagonist score)” value is “— (compounds for which there was no clear down regulation even at 50 μg/ml)”.

Turning to `CN1CCC(=C2c3ccccc3Sc3ccccc32)CC1.O=C(O)/C=C\C(=O)O` [compound 294, Pimethixene maleate], the “hTLR8 (inhibitory effect, antagonist score)” value was 11 (compounds for which there was clear down regulation only at 50 μg/ml).

Consider `O=C(O)c1ccccc1NC1CC=CC2=C1C(=O)c1ccccc1C2=O` (stereo not drawn) [compound 917], for which the “hTLR8 (inhibitory effect, antagonist score)” value is recorded as “— (compounds for which there was no clear down regulation even at 50 μg/ml)”.

Turning to `CCOC(=O)c1cc([N+](=O)[O-])cc2c1-c1ccc([N+](=O)[O-])cc1C2=C(C#N)C#N` [compound 1039], the “hTLR8 (inhibitory effect, antagonist score)” value is recorded as 11 (compounds for which there was clear down regulation only at 50 μg/ml).

Take `Cl.Cl.Fc1ccc(C(OCCN2CCN(CCCc3ccccc3)CC2)c2ccc(F)cc2)cc1` [compound 386, GBR 12909hydrochloride]: the “hTLR8 (inhibitory effect, antagonist score)” value was 12 (compounds for which there was clear down regulation at 5 μg/ml and 50 μg/ml).

On to `COCCCNC(=O)c1ccc2c(c1N)C(=O)c1ccccc1C2=O` [compound 1337], for which the “hTLR8 (inhibitory effect, antagonist score)” value is listed as 11 (compounds for which there was clear down regulation only at 50 μg/ml).

In the case of `Cl.Cl.c1ccc2c3c([nH]c2c1)C1C2CCC(C4CCCNC42)N1CC3` (stereo not drawn) [compound 685, Nitrarine dihydorchloride], the “hTLR8 (inhibitory effect, antagonist score)” value is “— (compounds for which there was no clear down regulation even at 50 μg/ml)”.

Turning to `COC(=O)c1ccc(C2CC(=O)Nc3c2ccc2ccccc32)cc1` (stereo not drawn) [compound 965], the “hTLR8 (inhibitory effect, antagonist score)” value is on record as “— (compounds for which there was no clear down regulation even at 50 μg/ml)”.

In the case of `O=C(c1cccc2c1-c1ccccc1/C2=N\O)N1CCCCC1` [compound 1050], the “hTLR8 (inhibitory effect, antagonist score)” value is listed as 11 (compounds for which there was clear down regulation only at 50 μg/ml).

In the case of `OCCN1CCN(CCCN2c3ccccc3Sc3ccc(Cl)cc32)CC1` [compound 125, Perphenazine], the “hTLR8 (inhibitory effect, antagonist score)” value is on record as 11 (compounds for which there was clear down regulation only at 50 μg/ml).

As to Metixene hydrochloride [compound 491], the “hTLR8 (inhibitory effect, antagonist score)” value is reported as 11 (compounds for which there was clear down regulation only at 50 μg/ml).

For `CC[C@]12CCCN3CCc4c(n(c5ccccc45)C(=O)C1)[C@@H]32` [compound 607, Eburnamonine], the “hTLR8 (inhibitory effect, antagonist score)” value is “— (compounds for which there was no clear down regulation even at 50 μg/ml)”.

Regarding `CCOC(=O)Oc1c(OC)cc(C(=O)O[C@@H]2C[C@@H]3CN4CCc5c([nH]c6cc(OC)ccc56)[C@H]4C[C@@H]3[C@H](C(=O)OC)[C@H]2OC)cc1OC` [compound 564, Syrosingopine], the “hTLR8 (inhibitory effect, antagonist score)” value was 12 (compounds for which there was clear down regulation at 5 μg/ml and 50 μg/ml).

Turning to `COC(=O)[C@H]1[C@H]2C[C@@H]3c4[nH]c5cc(OC)ccc5c4CCN3C[C@H]2C[C@@H](OC(=O)c2cc(OC)c(OC)c(OC)c2)[C@@H]1OC` [compound 875, Reserpine], the “hTLR8 (inhibitory effect, antagonist score)” value is recorded as “— (compounds for which there was no clear down regulation even at 50 μg/ml)”.

With `O=C(O)c1ccc(C2(c3ccc(C(=O)O)cc3)OC(=O)c3ccccc32)cc1` [compound 970], the “hTLR8 (inhibitory effect, antagonist score)” value was “— (compounds for which there was no clear down regulation even at 50 μg/ml)”.

With `Cc1nccc2c1[nH]c1ccccc12` [compound 620, Harmane hydrochloride], the “hTLR8 (inhibitory effect, antagonist score)” value is recorded as “— (compounds for which there was no clear down regulation even at 50 μg/ml)”.

For the compound `OC(c1ccccc1)(c1ccccc1)C1CCNCC1` [compound 93, Azacyclonol], the “hTLR8 (inhibitory effect, antagonist score)” value is “— (compounds for which there was no clear down regulation even at 50 μg/ml)”.

Regarding `CC1NCCc2c1[nH]c1ccccc21.Cl` (racemic) [compound 619, Eleagnine hydrochloride (R,S)], the “hTLR8 (inhibitory effect, antagonist score)” value is given as “— (compounds for which there was no clear down regulation even at 50 μg/ml)”.

In the case of `CC(=O)Oc1cc(C)c(C2(c3cc(C(C)C)c(OC(C)=O)cc3C)OC(=O)c3ccccc32)cc1C(C)C` [compound 1161], the “hTLR8 (inhibitory effect, antagonist score)” value is 12 (compounds for which there was clear down regulation at 5 μg/ml and 50 μg/ml).

Take `C[C@]12N[C@H](Cc3ccccc31)c1ccccc12.O=C(O)/C=C\C(=O)O` [compound 109, Dizocilpine maleate]: the “hTLR8 (inhibitory effect, antagonist score)” value is reported as “— (compounds for which there was no clear down regulation even at 50 μg/ml)”.

For the compound `NC(=O)c1cccc2c1-c1ccccc1C2` [compound 1132], the “hTLR8 (inhibitory effect, antagonist score)” value is listed as 11 (compounds for which there was clear down regulation only at 50 μg/ml).

In the case of `CN1CCCCC1CCN1c2ccccc2Sc2ccc([S+](C)[O-])cc21.O=S(=O)(O)c1ccccc1` (stereo not drawn) [compound 529, Mesoridazine besylate], the “hTLR8 (inhibitory effect, antagonist score)” value is given as “— (compounds for which there was no clear down regulation even at 50 μg/ml)”.

For `COc1ccc2c(c1)[nH]c1c(C)nccc12.Cl` [compound 613, harmine hydrochloride], the “hTLR8 (inhibitory effect, antagonist score)” value is 13 (compounds for which there was clear down regulation at 0.5 μg/ml, 5 μg/ml, and 50 μg/ml).

With `Cc1cccc(C)c1NC(=O)CN1CCN(CCCC(c2ccc(F)cc2)c2ccc(F)cc2)CC1` [compound 381, Lidoflazine], the “hTLR8 (inhibitory effect, antagonist score)” value is listed as 11 (compounds for which there was clear down regulation only at 50 μg/ml).

As for Flunarizinehydrochloride [compound 312], the “hTLR8 (inhibitory effect, antagonist score)” value was “— (compounds for which there was no clear down regulation even at 50 μg/ml)”.

For `O=C(O)c1cccc2c1-c1ccccc1/C2=N/Nc1ccc([N+](=O)[O-])cc1[N+](=O)[O-]` [compound 944], the “hTLR8 (inhibitory effect, antagonist score)” value is given as “— (compounds for which there was no clear down regulation even at 50 μg/ml)”.

In the case of `CN1CCN(CCCN2c3ccccc3Sc3ccc(S(=O)(=O)N(C)C)cc32)CC1.CS(=O)(=O)O.CS(=O)(=O)O` [compound 149, Thioproperasinedimesylate], the “hTLR8 (inhibitory effect, antagonist score)” value is recorded as “— (compounds for which there was no clear down regulation even at 50 μg/ml)”.

For the compound `Cc1nccc2c1[nH]c1cc(O)ccc12.Cl` [compound 612, Harmol hydrochloride monohydrate], the “hTLR8 (inhibitory effect, antagonist score)” value was 11 (compounds for which there was clear down regulation only at 50 μg/ml).
